Here are results for 42 compounds from US20200288710A1, “SUBSTITUTED SULPHONAMIDES FOR CONTROLLING ANIMAL PESTS” (BAYER CROPSCIENCE AKTIENGESELLSCHAFT, priority 2016, published 2020).

Structures are written as SMILES.

What all share (format): in vivo
Assay [1] deals with Meloidogyne incognita. In words: Meloidogyne incognita test. Conditions: 336 h, lettuce, after 14 days, read-out: nematicidal efficacy (formation of galls). On the procedure:
Meloidogyne incognita Test Solvent: 125.0 parts by weight of acetone To produce a suitable active compound preparation, 1 part by weight of active compound is mixed with the stated amount of solvent and the concentrate is diluted with water to the desired concentration. Vessels are filled with sand, active compound solution, an egg/larvae suspension of the southern rootknot nematode (Meloidogyne incognita) and lettuce seeds. The lettuce seeds germinate and the plants develop. The galls develop on the roots. After 14 days, the nematicidal efficacy in % is determined by the formation of galls. 100% means that no galls were found; 0% means that the number of galls on the treated plants corresponds to the untreated control.

Assay [2] relates to Myzus persicae. The assay is described as follows: Myzus persicae oral test. The settings on record: 120 h, 20 ppm, oral uptake, after 5 days, read-out: efficacy. The method, boiled down: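 Compound dissolved in acetone, diluted in water, then mixed 50:150 μl with IPL41 insect medium (33%+15% sugar). Mixed-population green peach aphids feed through a parafilm seal on the solution; mortality scored as % efficacy after 5 days (100% = all killed).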

Assay [3] has as its system Myzus persicae. The assay is described as follows: Myzus persicae spray test (Chinese cabbage leaf discs). Conditions: foliar, 120 h, 500 g/ha, after 5-6 days, read-out: efficacy. In outline:
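Chinese cabbage leaf discs infested with all stages of green peach aphid were sprayed with compound formulated in acetone/DMF and emulsifier-containing water. Efficacy in % was scored after 5-6 days, with 100% meaning all aphids killed and 0% none killed.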

Take `COc1ccc(Cl)c(S(=O)(=O)NC(=O)c2nc(-c3c(F)cccc3Cl)[nH]c2C)c1` [Example 624]: the pest or weed control at 20 ppm in assay [1] was determined as 90%.
Regarding `COc1ccccc1NS(=O)(=O)NC(=O)c1cn(C)c(-c2c(F)cccc2F)n1` [Example 508], the pest or weed control at 20 ppm in assay [1] worked out at 90%.
Regarding `COc1cccc(S(C)(=O)=O)c1S(=O)(=O)NC(=O)c1cn(C)c(-c2c(F)cccc2F)n1` [Example 382], the pest or weed control at 20 ppm in assay [1] was found to be 90%.
On the same count and under the same terms, to `COc1ccc(Cl)c(S(=O)(=O)NC(=O)c2cc(-c3ncccc3Cl)n(-c3ccccc3Cl)n2)c1` [Example 457] belongs 100%.
Take `CCc1[nH]c(-c2ccccc2Cl)nc1C(=O)NS(=O)(=O)c1ccccc1Cl` [Example 243]: the pest or weed control at 20 ppm in assay [1] amounted to 90%.
Same read-out and setting: to `Cc1cccc(C)c1S(=O)(=O)NC(=O)c1cc(-c2ncccc2Cl)n(-c2ccccc2Cl)n1` [Example 267] belongs 100%; to `Cc1[nH]c(-c2ccc(Cl)cc2)nc1C(=O)NS(=O)(=O)c1ccccc1Cl` [Example 232], 90%.
`Cn1cc(C(=O)NS(=O)(=O)c2ccccc2Cl)nc1-c1ccccc1Oc1ccccc1` [Example 484]: in assay [1], the pest or weed control at 20 ppm worked out at 100%.
Take `Cn1nc(-c2c(F)cccc2F)nc1C(=O)NS(=O)(=O)c1ccccc1Br` [Example 408]: the pest or weed control at 20 ppm in assay [1] worked out at 90%.
Still for that read-out and setting: to `COc1ccc(S(=O)(=O)NC(=O)c2cn(C)c(-c3c(F)cccc3F)n2)cn1` [Example 344] belongs 90%; to `Cn1cc(C(=O)NS(=O)(=O)c2c(C(F)(F)F)cccc2[Si](C)(C)C)nc1-c1c(F)cccc1F` [Example 375], 90%.
In the case of `O=C(NS(=O)(=O)c1ccccc1Cl)c1cc(-c2ccccc2Cl)n(-c2ncccc2Cl)n1` [Example 262], the pest or weed control at 20 ppm in assay [1] came to 90%.
On the same count and under the same terms, to `CCc1[nH]c(-c2cccc(Cl)c2Cl)nc1C(=O)NS(=O)(=O)c1ccccc1C` [Example 260] belongs 100%; to `CCn1c(C(=O)NS(=O)(=O)c2ccccc2C)nc(-c2c(F)cccc2F)c1C` [Example 417], 100%.
As for `CCc1[nH]c(-c2cccc(C)c2C)nc1C(=O)NS(=O)(=O)c1ccccc1Cl` [Example 472], the pest or weed control at 20 ppm in assay [1] was determined as 90%.
For `CC(C)Cc1ccc(S(=O)(=O)NC(=O)c2cn(C)c(-c3ccccc3Cl)n2)cc1` [Example 288], in assay [1], the pest or weed control at 20 ppm worked out at 90%.
As for `Cn1cc(C(=O)NS(=O)(=O)c2ccccc2C(C)(C)C)nc1-c1c(F)cccc1F` [Example 360], in assay [1], the pest or weed control at 20 ppm is 90%.
The same measure, in the same setting: to `CC(C)Nc1ccccc1S(=O)(=O)NC(=O)c1cn(C)c(-c2ccccc2Cl)n1` [Example 253] belongs 90%; to `COc1ccccc1S(=O)(=O)NC(=O)c1cn(C)c(-c2ccc(Cl)c(Cl)c2)n1` [Example 537], 100%.
Regarding `CC(C)S(=O)(=O)NC(=O)c1cn(C)c(-c2c(F)cccc2F)n1` [Example 85], in assay [1], the pest or weed control at 20 ppm turned out to be 90%.
`Cc1ccc(F)cc1S(=O)(=O)NC(=O)c1cn(C)c(-c2cccnc2Cl)n1` [Example 566]: the pest or weed control at 20 ppm in assay [2] is 100%. Besides, the pest or weed control at 500 g/ha in assay [3] is 100%.
In the case of `COc1ccccc1S(=O)(=O)NC(=O)c1cn(C)c(-c2ccccc2Cl)n1` [Example 59], the pest or weed control at 20 ppm in assay [2] was 100%. The pest or weed control at 500 g/ha in assay [3] was 90%.
Regarding `Cc1ccccc1S(=O)(=O)NC(=O)c1cc(C)n(-c2ncccc2Br)n1` [Example 297], in assay [2], the pest or weed control at 20 ppm was 100%. Moreover, the pest or weed control at 500 g/ha in assay [3] came out at 90%.
For `Cc1ccccc1S(=O)(=O)NC(=O)c1nc(-c2c(F)cccc2F)c(C)[nH]1` [Example 147], in assay [2], the pest or weed control at 20 ppm was 100%. Further, the pest or weed control at 500 g/ha in assay [3] was determined as 100%.
In the case of `COc1ccccc1S(=O)(=O)NC(=O)c1cn(C)c(-c2cccnc2Cl)n1` [Example 492], the pest or weed control at 20 ppm in assay [2] came out at 100%. Further, the pest or weed control at 500 g/ha in assay [3] stood at 100%.
As for `Cc1ccccc1S(=O)(=O)NC(=O)c1cn(C)c(-c2cccnc2Cl)n1` [Example 491], the pest or weed control at 20 ppm in assay [2] turned out to be 100%. The pest or weed control at 500 g/ha in assay [3] was found to be 100%.
As to `CCn1cc(C(=O)NS(=O)(=O)c2ccccc2OC)nc1-c1c(F)cccc1F` [Example 569], the pest or weed control at 20 ppm in assay [2] was 100%. Further, the pest or weed control at 500 g/ha in assay [3] was found to be 100%.
Turning to `Cn1cc(C(=O)NS(=O)(=O)c2cnccc2Cl)nc1-c1ccccc1Cl` [Example 220], in assay [2], the pest or weed control at 20 ppm came to 100%. In addition, in assay [3], the pest or weed control at 500 g/ha turned out to be 100%.
Take `Cc1ccc(F)cc1S(=O)(=O)NC(=O)c1cn(C)c(-c2ncccc2F)n1` [Example 562]: the pest or weed control at 20 ppm in assay [2] was 100%. Besides, the pest or weed control at 500 g/ha in assay [3] was found to be 100%.
For the compound `COc1ccc([N+](=O)[O-])c(S(=O)(=O)NC(=O)c2cn(C)c(-c3c(F)cccc3F)n2)c1` [Example 389], the pest or weed control at 20 ppm in assay [2] amounted to 100%. Moreover, in assay [3], the pest or weed control at 500 g/ha was found to be 90%.
For the compound `COc1ccc(OC)c(S(=O)(=O)NC(=O)c2cn(C)c(-c3c(F)cccc3F)n2)c1` [Example 19], the pest or weed control at 20 ppm in assay [2] is 100%. In addition, in assay [3], the pest or weed control at 500 g/ha was found to be 90%.
The corresponding values for `COc1cccc(S(=O)(=O)NC(=O)c2cn(C)c(-c3c(F)cccc3F)n2)c1` [Example 388] are 100% and 90%.
Consider `COc1ccc(OC)c(S(=O)(=O)NC(=O)c2cn(C)c(-c3ncccc3Cl)n2)c1` [Example 598], for which the pest or weed control at 20 ppm in assay [2] came to 100%. The pest or weed control at 500 g/ha in assay [3] is 90%.
For `CCc1cccc(OS(C)(=O)=O)c1S(=O)(=O)NC(=O)c1cn(C)c(-c2c(F)cccc2F)n1` [Example 342], the pest or weed control at 20 ppm in assay [2] was 100%. Further, in assay [3], the pest or weed control at 500 g/ha turned out to be 100%.
Regarding `CCc1[nH]c(-c2c(F)cccc2F)nc1C(=O)NS(=O)(=O)c1ccccc1C` [Example 125], the pest or weed control at 20 ppm in assay [2] is 100%. Moreover, the pest or weed control at 500 g/ha in assay [3] amounted to 90%.
Consider `Cn1cc(C(=O)NS(=O)(=O)c2c(F)cccc2Br)nc1-c1c(F)cccc1F` [Example 432], for which, in assay [2], the pest or weed control at 20 ppm came to 100%. For the same compound, the pest or weed control at 500 g/ha in assay [3] is 100%.
For the compound `CCc1[nH]c(-c2c(F)cccc2F)nc1C(=O)NS(=O)(=O)c1ccccc1Cl` [Example 124], the pest or weed control at 20 ppm in assay [2] came out at 100%. Further, the pest or weed control at 500 g/ha in assay [3] stood at 90%.
Turning to `CCc1ccsc1S(=O)(=O)NC(=O)c1cn(C)c(-c2ncccc2F)n1` [Example 604], the pest or weed control at 20 ppm in assay [2] was 90%. In assay [3], the pest or weed control at 500 g/ha came to 90%.
As to `Cn1cc(C(=O)NS(=O)(=O)c2ccccc2)nc1-c1c(F)cccc1Cl` [Example 112], the pest or weed control at 20 ppm in assay [2] is 100%. The pest or weed control at 500 g/ha in assay [3] was 90%.
For `Cc1ccccc1-c1nc(C(=O)NS(=O)(=O)c2ccccc2C(F)(F)F)cn1C` [Example 28], the pest or weed control at 20 ppm in assay [2] was 100%. Moreover, the pest or weed control at 500 g/ha in assay [3] is 100%.
For the compound `COc1ccccc1S(=O)(=O)NC(=O)c1cn(C)c(-c2c(F)cc(F)cc2F)n1` [Example 7], in assay [2], the pest or weed control at 20 ppm came out at 90%. Further, the pest or weed control at 500 g/ha in assay [3] came to 90%.
As to `Cn1cc(C(=O)NS(=O)(=O)c2ccccc2F)nc1-c1ccccc1Cl` [Example 57], the pest or weed control at 20 ppm in assay [2] came out at 100%. The pest or weed control at 500 g/ha in assay [3] came to 100%.
